Measurements from patent US4886884A, “Derivatives from cervinomycin based antibiotics” (The Kitazato Institute, priority 1986, dated 1989).
Converted amounts (≈) assume the structure as drawn. Like-named read-outs stand apart in the source and are kept apart here.

Tests used:
[1] = tested on: Gram-positive and Gram-negative bacteria, mycoplasmas; assay: Antimicrobial activity (overall, in words); assay type: cell-based
[2] = Solubility in different solvents; assay type: physicochemical; conditions: organic solvent or mixture
Description: Compounds (1) of the present invention had the following solubilities in different solvents.

[3] = tested on: Mycoplasma gallisepticum KB-171 (S-6); assay: Antibacterial activity, minimum inhibitory concentration (MIC); assay type: cell-based; conditions: Mycoplasmoides gallisepticum
[4] = tested on: Acholeplasma laidlawii KB-174 (PG-8); assay: as above; assay type: cell-based
[5] = tested on: Clostridium difficile (ATCC 9689); assay: as above; assay type: cell-based; conditions: Clostridioides difficile, ATCC9689
[6] = tested on: Micrococcus luteus KB-212 (ATCC 9341); assay: as above; assay type: cell-based
[7] = tested on: Staphylococcus aureus KB-210 (ATCC 6538P); assay: as above; assay type: cell-based; conditions: ATCC6538P
in vivo = conditions: mouse, po
[8] = tested on: Pseudomonas aeruginosa KB-115 (IFO 3080); assay: Antibacterial activity, minimum inhibitory concentration (MIC); assay type: cell-based
[9] = tested on: Bacillus cereus KB-143 (IFO 3001); assay: as above; assay type: cell-based
[10] = tested on: Bacillus subtilis KB-211 (ATCC 6633); assay: as above; assay type: cell-based
[11] = tested on: Escherichia coli KB-176 (NIHJ JC-2); assay: as above; assay type: cell-based
[12] = tested on: Bacteroides fragilis KB-169 (ATCC 23749); assay: as above; assay type: cell-based
[13] = tested on: Mycoplasma pneumoniae KB-173; assay: as above; assay type: cell-based
[14] = tested on: Klebsiella pneumoniae KB-214 (ATCC 10031); assay: as above; assay type: cell-based
[15] = tested on: Bifidobacterium bifidum (ATCC 11146); assay: as above; assay type: cell-based
[16] = tested on: Proteus vulgaris KB-127 (IFO 3167); assay: as above; assay type: cell-based
[17] = tested on: Clostridium perfringens (ATCC 13124); assay: microbe, parasite or virus in culture; assay type: cell-based; conditions: ATCC13124
[18] = tested on: Salmonella typhimurium KB-20; assay: Antibacterial activity, minimum inhibitory concentration (MIC); assay type: cell-based; conditions: Salmonella enterica
[19] = tested on: Peptococcus variabilis KB-235 (ATCC 14955); assay: as above; assay type: cell-based
[20] = Acute toxicity test by oral administration; conditions: mouse, in vivo
[21] = acetic acid, read-out: Solubility in Acetic acid
[22] = dmso, read-out: Solubility in DMSO
[23] = methanol, read-out: Solubility in Methanol
[24] = inoculum 1 × 10^6 cells/ml, 37° C., read-out: MIC
[25] = ATCC9341, inoculum 1 × 10^6 cells/ml, 37° C., read-out: MIC
[26] = IFO3080, inoculum 1 × 10^6 cells/ml, 37° C., read-out: MIC
[27] = IFO3001, inoculum 1 × 10^6 cells/ml, 37° C., read-out: MIC
[28] = ATCC6633, inoculum 1 × 10^6 cells/ml, 37° C., read-out: MIC
[29] = NIHJJC2, inoculum 1 × 10^6 cells/ml, 37° C., read-out: MIC
[30] = ATCC23749, inoculum 1 × 10^6 cells/ml, 37° C., read-out: MIC
[31] = ATCC10031, inoculum 1 × 10^6 cells/ml, 37° C., read-out: MIC
[32] = ATCC11146, inoculum 1 × 10^6 cells/ml, 37° C., read-out: MIC
[33] = IFO3167, inoculum 1 × 10^6 cells/ml, 37° C., read-out: MIC

**Q.** For `COc1cc2oc3c(c(=O)c2cc1OC)C(=O)c1c(ccc2c(C)c4c(c(OC)c12)C(=O)N1CCOC1(C)C4)C3=O` (centres unmarked) [C,O-dimethyl Cervinomycin A2], which antimicrobial activity [1] is on record?
**A.** substantially equal to those of Cervinomycin A1 and A2

**Q.** Which solubility [2, 21] does the source give for `COc1cc2oc3c(c(=O)c2cc1OC)C(=O)c1c(ccc2cc4c(c(OC(C)=O)c12)C(=O)N1CCOC1(C)C4)C3=O` (centres unmarked) [Monoacetyl Cervinomycin A2, monoacetyl Cervinomycin A2] here?
**A.** 3000 µg/mL (≈ 5270 µM)

**Q.** What about the solubility [2, 22] of the same molecule?
**A.** 5000 µg/mL (≈ 8780 µM)

**Q.** And the solubility [2, 23]?
**A.** 300 µg/mL (≈ 527 µM)

**Q.** What about the MIC [3, 24] of the same molecule?
**A.** 1.25 µg/mL (≈ 2.19 µM)

**Q.** And the MIC [4, 24]?
**A.** 1.25 µg/mL (≈ 2.19 µM)

**Q.** And the MIC [5, 24]?
**A.** 0.05 µg/mL (≈ 0.0878 µM)

**Q.** What about the MIC [6, 25] of the same molecule?
**A.** 0.4 µg/mL (≈ 0.702 µM)

**Q.** And the MIC [7, 24]?
**A.** 0.31 µg/mL (≈ 0.544 µM)

**Q.** And the LD50 (in vivo)?
**A.** 1800 mg/kg

**Q.** What about the MIC [8, 26] of the same molecule?
**A.** > 10 µg/mL

**Q.** And the MIC [9, 27]?
**A.** 0.16 µg/mL (≈ 0.281 µM)

**Q.** What about the MIC [10, 28] of the same molecule?
**A.** 0.08 µg/mL (≈ 0.14 µM)

**Q.** And the MIC [11, 29]?
**A.** > 10 µg/mL

**Q.** And the MIC [12, 30]?
**A.** 0.1 µg/mL (≈ 0.176 µM)

**Q.** What about the MIC ([13]; KB173, inoculum 1 × 10^6 cells/ml, 37° C., read-out: MIC) of the same molecule?
**A.** 0.6 µg/mL (≈ 1.05 µM)

**Q.** And the MIC [14, 31]?
**A.** > 10 µg/mL

**Q.** And the MIC [15, 32]?
**A.** 0.2 µg/mL (≈ 0.351 µM)

**Q.** What about the MIC [16, 33] of the same molecule?
**A.** > 10 µg/mL

**Q.** And the MIC [17]?
**A.** 0.02 µg/mL (≈ 0.0351 µM)

**Q.** What about the MIC [18, 24] of the same molecule?
**A.** > 10 µg/mL

**Q.** With `COc1cc2oc3c(c(=O)c2cc1OC)C(=O)c1c(ccc2cc4c(c(OC)c12)C(=O)N1CCOC1(C)C4)C3=O` (centres unmarked) [O-methyl Cervinomycin A2] as the molecule, how does the antimicrobial activity [1] read?
**A.** substantially equal to those of Cervinomycin A1 and A2

**Q.** With `COc1cc2oc3c(OC(C)=O)c4ccc5cc6c(c(OC(C)=O)c5c4c(OC(C)=O)c3c(=O)c2cc1OC)C(=O)N1CCOC1(C)C6` (centres unmarked) [Triacetyl Cervinomycin A1, triacetyl Cervinomycin A1] as the molecule, how does the solubility [2, 21] read?
**A.** > 25000 µg/mL

**Q.** And the solubility [2, 22]?
**A.** > 50000 µg/mL

**Q.** What about the solubility [2, 23] of the same molecule?
**A.** 1400 µg/mL (≈ 2140 µM)

**Q.** And the MIC [3]?
**A.** 0.156 µg/mL (≈ 0.238 µM)

**Q.** And the MIC [4]?
**A.** 0.312 µg/mL (≈ 0.476 µM)

**Q.** And the MIC [5]?
**A.** 0.05 µg/mL (≈ 0.0763 µM)

**Q.** And the MIC ([6]; ATCC9341)?
**A.** 0.08 µg/mL (≈ 0.122 µM)

**Q.** And the MIC [7]?
**A.** 0.16 µg/mL (≈ 0.244 µM)

**Q.** What about the MIC ([8]; IFO3080) of the same molecule?
**A.** > 10 µg/mL

**Q.** What about the MIC ([9]; IFO3001) of the same molecule?
**A.** 0.31 µg/mL (≈ 0.473 µM)

**Q.** And the MIC ([10]; ATCC6633)?
**A.** > 0.02 µg/mL

**Q.** And the MIC ([11]; NIHJJC2)?
**A.** > 10 µg/mL

**Q.** What about the MIC ([12]; ATCC23749) of the same molecule?
**A.** 0.1 µg/mL (≈ 0.153 µM)

**Q.** What about the MIC ([13]; KB173) of the same molecule?
**A.** 0.156 µg/mL (≈ 0.238 µM)

**Q.** What about the MIC ([14]; ATCC10031) of the same molecule?
**A.** > 10 µg/mL

**Q.** And the MIC ([15]; ATCC11146)?
**A.** 0.2 µg/mL (≈ 0.305 µM)

**Q.** What about the MIC ([16]; IFO3167) of the same molecule?
**A.** > 10 µg/mL

**Q.** What about the MIC [19] of the same molecule?
**A.** 0.02 µg/mL (≈ 0.0305 µM)

**Q.** What about the MIC [17] of the same molecule?
**A.** 0.02 µg/mL (≈ 0.0305 µM)

**Q.** And the MIC [18]?
**A.** > 10 µg/mL

**Q.** What about the LD50 [20] of the same molecule?
**A.** 1620 mg/kg

**Q.** For `CCC[C@@H]1C[C@@H](C(=O)N[C@@H]([C@H]2O[C@H](SC)[C@H](O)[C@@H](O)[C@H]2O)[C@H](C)Cl)N(C)C1` [Clindamycin, reference compound], which MIC [3] is on record?
**A.** 0.62 µg/mL (≈ 1.46 µM)

**Q.** What about the MIC [4] of the same molecule?
**A.** 0.62 µg/mL (≈ 1.46 µM)

**Q.** And the MIC [5, 24]?
**A.** 6.3 µg/mL (≈ 14.8 µM)

**Q.** What about the MIC [6, 25] of the same molecule?
**A.** 0.04 µg/mL (≈ 0.0941 µM)

**Q.** What about the MIC [7, 24] of the same molecule?
**A.** 0.16 µg/mL (≈ 0.376 µM)

**Q.** What about the MIC [8, 26] of the same molecule?
**A.** > 10 µg/mL

**Q.** What about the MIC [9, 27] of the same molecule?
**A.** 0.63 µg/mL (≈ 1.48 µM)

**Q.** And the MIC [10, 28]?
**A.** 2.5 µg/mL (≈ 5.88 µM)

**Q.** What about the MIC [11, 29] of the same molecule?
**A.** > 10 µg/mL

**Q.** And the MIC [12, 30]?
**A.** 0.08 µg/mL (≈ 0.188 µM)

**Q.** What about the MIC ([13]; KB173) of the same molecule?
**A.** 0.62 µg/mL (≈ 1.46 µM)

**Q.** And the MIC [14, 31]?
**A.** > 10 µg/mL

**Q.** And the MIC [15, 32]?
**A.** 0.02 µg/mL (≈ 0.0471 µM)

**Q.** And the MIC [16, 33]?
**A.** > 10 µg/mL

**Q.** And the MIC [19, 24]?
**A.** 0.16 µg/mL (≈ 0.376 µM)

**Q.** And the MIC [17]?
**A.** 0.4 µg/mL (≈ 0.941 µM)

**Q.** And the MIC [18]?
**A.** > 10 µg/mL

**Q.** For `COc1cc2oc3c(O)c4ccc5cc6c(c(O)c5c4c(O)c3c(=O)c2cc1OC)C(=O)N1CCOC1(C)C6` (centres unmarked) [Cervinomycin A1, reference compound], which solubility [2, 21] is on record?
**A.** 23 µg/mL (≈ 43.4 µM)

**Q.** And the solubility [2, 22]?
**A.** 78 µg/mL (≈ 147 µM)

**Q.** And the solubility [2, 23]?
**A.** 0.3 µg/mL (≈ 0.567 µM)

**Q.** And the MIC [3]?
**A.** 12.5 µg/mL (≈ 23.6 µM)

**Q.** And the MIC [4]?
**A.** 12.5 µg/mL (≈ 23.6 µM)

**Q.** And the MIC ([6]; ATCC9341)?
**A.** 5 µg/mL (≈ 9.44 µM)

**Q.** What about the MIC [7] of the same molecule?
**A.** 5 µg/mL (≈ 9.44 µM)

**Q.** What about the MIC ([8]; IFO3080) of the same molecule?
**A.** > 10 µg/mL

**Q.** What about the MIC ([9]; IFO3001) of the same molecule?
**A.** 10 µg/mL (≈ 18.9 µM)

**Q.** What about the MIC ([10]; ATCC6633) of the same molecule?
**A.** 2.5 µg/mL (≈ 4.72 µM)

**Q.** And the MIC ([11]; NIHJJC2)?
**A.** > 10 µg/mL

**Q.** What about the MIC ([12]; ATCC23749) of the same molecule?
**A.** 1.25 µg/mL (≈ 2.36 µM)

**Q.** What about the MIC ([13]; KB173) of the same molecule?
**A.** 12.5 µg/mL (≈ 23.6 µM)

**Q.** And the MIC ([14]; ATCC10031)?
**A.** > 10 µg/mL

**Q.** And the MIC ([16]; IFO3167)?
**A.** > 10 µg/mL

**Q.** And the MIC [19]?
**A.** 0.62 µg/mL (≈ 1.17 µM)

**Q.** And the MIC [17]?
**A.** 1.25 µg/mL (≈ 2.36 µM)

**Q.** What about the MIC [18] of the same molecule?
**A.** > 10 µg/mL

**Q.** And the LD50 [20]?
**A.** 320 mg/kg

**Q.** With `COc1cc2oc3c(c(=O)c2cc1OC)C(=O)c1c(ccc2c(C)c4c(c(O)c12)C(=O)N1CCOC1(C)C4)C3=O` (centres unmarked) [C-methyl Cervinomycin A2] as the molecule, how does the antimicrobial activity [1] read?
**A.** substantially equal to those of Cervinomycin A1 and A2
